In ChEMBL document CHEMBL1157539, “Thousands of chemical starting points for antimalarial lead identification” (Nature, 2010):

System: Plasmodium falciparum
Assay: GSK_TCMDC: Inhibition of Plasmodium falciparum 3D7 in whole erythrocytes, using parasite LDH activity as an index of growth.
Assay type: functional, organism-based
Settings: Plasmodium falciparum, 3D7

| SMILES | XC50 |
| --- | --- |
| CC1(C)NC(N)=NC(=N)N1OCCOc1ccc(Cc2ccccc2)cc1 | 44 nM |
| Nc1cnc(C#Cc2cc3ncnc(N(CCN4CCOCC4)c4ccc(OCc5cccc(F)c5)c(Cl)c4)c3s2)cn1 | 1050 nM |
| O=C(Nc1ccc(-c2cccc(-c3nc4cc(C(F)(F)F)ccc4[nH]3)c2)cc1)c1cccnc1 | 725 nM |
| COc1ccc(S(=O)(=O)N2CCOCC2)cc1NC(=O)c1cc2ccccc2o1 | 795 nM |
| c1cc(CNCC2CCN(CC3CCCCC3)CC2)cc(-n2ccnc2)c1 | 545 nM |
| O=C(N[C@H](Cc1ccc(Cl)cc1)C(=O)N1CCN(c2ccnc3cc(Cl)ccc23)CC1)[C@H]1Cc2ccccc2CN1 | 424 nM |
| C[C@H](NC(=O)[C@H](Cc1ccccc1)NC(=O)OC(C)(C)C)C(=O)N[C@@H](CC1CCCCC1)C(O)CN (stereo not given in full) | 733 nM |
| Cc1cccc2nc(-c3ccc(-c4cccc(CN5CCC(C(N)=O)CC5)c4)s3)[nH]c12 | 1260 nM |
| O=C(/C=C/c1ccc(C(F)(F)F)cc1)NCCCCCN1CCCN(C(=O)Nc2ccc(Cl)cc2)CC1 | 869 nM |
| O=C(Nc1ccc(OC2CCN(Cc3ccsc3)CC2)c(Cl)c1)c1ccc(F)cc1 | 647 nM |
| CCOC(=O)[C@H](Cc1cccc2ccccc12)NC(=O)[C@H](CCC(=O)OC(C)(C)C)NC(=O)c1ccc(N(C)Cc2cnc3nc(N)nc(N)c3n2)cc1 | 663 nM |
| Cc1cccc2nc(-c3ccc(-c4ccc(CN5CCOCC5)cc4)cc3)[nH]c12 | 818 nM |
| O=C(c1cc2ccccc2o1)N1CCc2cc3nccc(N4CCN5CCC[C@H]5C4)c3cc21 | 812 nM |
| CCN(Cc1ccccc1)C1CCN(Cc2cc(Br)ccc2O)CC1 | 823 nM |
| COc1cccc(C(=O)Nc2ccc(Nc3nc(C)cc(N(C)C)n3)cc2)c1OC | 1020 nM |
| CN1CC[C@@H](Oc2cc(NC(=O)Nc3ccc(Cl)c(C(F)(F)F)c3)ccc2Cl)C1 | 994 nM |
| O=C(/C=C/c1ccc(Cl)c(Cl)c1)NCCCCCN1CCC(NC(=O)Nc2ccc(OC(F)F)cc2)CC1 | 754 nM |
| Cc1ccccc1C1CCN(C2CCC(NC(=O)c3ccc4c(c3)-c3nocc3C(C)O4)CC2)CC1 (stereo not given) | 1270 nM |
| O=S(=O)(c1ccccc1Cl)N1CCCCC(c2ccc(C(F)(F)F)cc2)=N1 | 942 nM |
| CCNc1cc(C(=O)N[C@@H](Cc2ccccc2)[C@H](O)CNCCc2ccccc2)cc(N2CCCCS2(=O)=O)c1 | 936 nM |
| Cc1cc(N[C@@H](Cc2ccccc2)C(=O)NC2CCCC2)nc(NCCCOC(C)C)n1 | 1480 nM |
| CCC(CCON1C(N)=NC(N)=NC1(C)C)c1ccc(Cl)cc1 (stereo not given) | 3.2 nM |
| O=C(Nc1ccc(C(F)(F)F)cc1)NC1CCN(c2ccnc3cc(Cl)ccc23)CC1 | 178 nM |
| COc1ccc(-n2nc(C(=O)NCc3ccccc3OC)c3ccccc3c2=O)cc1 | 217 nM |

| SMILES | XC50 |
| --- | --- |
| CC(C)(CNCc1ccc(Cl)cc1)c1nc(-c2ccc(Cl)c(O)c2)c(-c2ccncc2)[nH]1 | 476 nM |
| O=C(Cn1c(CCc2cccc(F)c2F)nc(=O)c2ccccc21)N(CCCN1CCCC1)Cc1ccc(-c2ccc(C(F)(F)F)cc2)cc1 | 941 nM |
| Cc1cc(C(=O)Nc2ccc(C)c(-c3nc(N(C(=O)c4ccc(F)c(C)c4)C4CCNCC4)nc4c3ccc(=O)n4-c3c(F)cccc3F)c2)ccc1F | 319 nM |
| Cc1ccc(S(=O)(=O)NC(=N)NC(N)=O)cc1 | 794 nM |
| CN(c1ccc2c(c1)nc(Nc1ccc(Cl)cc1)n2C)c1ccnc(Nc2ccc(CS(C)(=O)=O)cc2)n1 | 758 nM |
| COc1ccc2ncc(Cl)c([C@@H](O)CN3CCC(NCc4cc5c(cn4)OCCO5)CC3)c2c1 | 59.5 nM |
| CC(=O)N(Cc1nc(-c2cc(Cl)c(Cl)s2)cs1)c1c(C)cccc1C | 333 nM |
| CC(C)(C)CNCC(C)(C)c1nc(-c2ccc(Cl)c(O)c2)c(-c2ccncc2)[nH]1 | 601 nM |
| CN1CCN(CC(O)CNC(=O)Nc2ccc(Br)cc2)CC1 (stereo not given) | 149 nM |
| O=C(c1cccs1)N1N=C(c2cccs2)CC1c1cccc([N+](=O)[O-])c1 (stereo not given) | 820 nM |
| CC=CC1CCNC(C(O)c2ccnc3ccc(OC)cc23)C1 (stereo not given) | 1090 nM |
| CN(CCCCNC(=O)/C=C/c1ccccc1)C1CC2(CCN(C(=O)OC(C)(C)C)CC2)c2ccccc21 (stereo not given) | 1140 nM |
| CCN(CC)c1nc(N)c2c(N)nc3c(c2c1C#N)C(=O)CN3Cc1ccccc1 | 70.8 nM |
| O=S(=O)(c1c(Cl)cc(Cl)cc1Cl)N1CCCCC(c2ccc(Cl)cc2)=N1 | 402 nM |
| Cc1cc(C)cc(Oc2c(C(F)(F)F)oc3c(CN4CC(C)OC(C)C4)c(O)ccc3c2=O)c1 (stereo not given) | 939 nM |
| O=C(Nc1cccc(-c2ccc(-c3nc4cc(C(F)(F)F)ccc4[nH]3)cc2)c1)c1ccncc1 | 337 nM |
| C=CCOC(=O)N1CCC(CNCc2cccc(-c3ccc(-c4nc5ccccc5[nH]4)s3)c2)C1 (stereo not given) | 272 nM |
| O=c1cc(NCCCNCc2ccc(Cl)c(Cl)c2)[nH]c2cc(F)cc(F)c12 | 675 nM |
| NC1CCN(Cc2ccc(-c3ccc(-c4nc5ccccc5[nH]4)s3)cc2)C1 (stereo not given) | 743 nM |
| Oc1ccc2[nH]c(-c3cccc(F)c3)nc2c1CN1CCCC1 | 795 nM |
| CCc1c(CCNCCCC(C)CCNCCc2ccc(OC)c(OC)c2CC)ccc(OC)c1OC (stereo not given) | 1110 nM |
| CN1CCN(Cc2cccc(-c3ccc4c(Nc5ccc(Oc6ccccc6)cc5)ccnc4c3)c2)CC1 | 226 nM |
| CCCCc1ccccc1NS(=O)(=O)c1ccc(OC)c(N2CCNCC2)c1 | 1380 nM |
| COc1ccc(CNCc2cccc(-c3cccc(-c4nc5ccccc5[nH]4)c3)c2)cc1 | 368 nM |

| SMILES | XC50 |
| --- | --- |
| Cc1sc2ncnc(Sc3nc4ccccc4[nH]3)c2c1C | 255 nM |
| COc1ccc(CCNC(=O)c2cnc3c(c2)nc(-c2c[nH]c(-c4ccccc4)n2)n3CCc2c[nH]cn2)cc1 | 970 nM |
| CCCC(CNCc1cccc(OC(F)(F)C(F)F)c1)CNc1cc(=O)c2ccccc2[nH]1 (stereo not given) | 595 nM |
| COc1ccc(CCN(C)CCCN2CCC(NC(=O)c3cccc4c(=O)c5ccccc5sc34)CC2)cc1OC | 786 nM |
| Cc1cc(N[C@@H](Cc2ccccc2)C(=O)NCCOc2ccccc2)nc(NCCc2ccccc2)n1 | 1030 nM |
| COc1ccc2c(=NN=Cc3cccnc3)cc(C)[nH]c2c1 | 993 nM |
| CCOC(=O)c1ccc(-c2cnoc2-c2cc(CC)c(OC)cc2O)o1 | 275 nM |
| O=C(/C=C/c1ccc(Cl)c(Cl)c1)NCCCCCN1CCC(NC(=O)Nc2cc(F)ccc2F)CC1 | 697 nM |
| CSc1ccccc1NC(=S)NC1CCN(CCCCCNC(=O)/C=C/c2ccc(Cl)c(Cl)c2)CC1 | 778 nM |
| COc1ccc2[nH]cc(C3=CCN(CC4CC4C(=O)c4ccccc4)CC3)c2n1 (stereo not given) | 270 nM |
| NCC1CCCN1Cc1ccc(-c2ccc(-c3nc4cc(C(F)(F)F)ccc4[nH]3)s2)cc1 (stereo not given) | 794 nM |
| CCN(CC)/C(=N/C(=N)NCc1ccc(Cl)cc1)NCCCCCCN/C(=N\C(=N)NCc1ccc(Cl)cc1)N(CC)CC | 231 nM |
| O=C(C=Cc1cn(-c2ccccc2)nc1-c1ccccc1)N1CCN(c2ccncc2)CC1 | 965 nM |
| Cc1ccc(C(=O)Nc2cc(S(=O)(=O)N3CCCC3)ccc2OCC(F)(F)F)cc1 | 851 nM |
| CCCc1cn2c3c(cc(C(=O)N[C@@H](Cc4ccccc4)[C@H](O)CNC4CCCCC4)cc13)N(C)S(=O)(=O)CC2 | 66.9 nM |
| CC(C)CNCc1ccc(-c2ccc(CN(C(=O)Nc3ccccc3)C3CCN(Cc4ccccc4)CC3)cc2)cc1 | 680 nM |
| O=C(Nc1ccc(Cl)cc1)c1cccc(CN2CCCN(Cc3cccc(O)c3)CC2)c1 | 957 nM |
| Cc1cc2c(cc1C(F)(F)F)N(C(=O)Nc1cc(C(=O)NCCN(C)C)cc(C(F)(F)F)c1)CC2 | 730 nM |
| CN(C)c1cccc(CCNCCc2c[nH]c3ccc(Cl)cc23)c1 | 436 nM |
| CC(C)CCNC(=O)C1Cc2c([nH]c3ccc(Br)cc23)C2(CCN(Cc3ccccc3)CC2)N1 (stereo not given) | 817 nM |
| CN1CCCN(Cc2cccc(-c3cccc(NC(=O)c4ccc(C#N)cc4)c3)c2)CC1 | 1140 nM |
| CCOc1ccc2c(c1)N(C(=O)C=Cc1ccccc1)C(C)(C)c1ssc(=S)c1-2 | 1150 nM |
| COc1ccc2nccc([C@@H](O)CN3CCC(NCc4cc5cccc(OC)c5o4)CC3)c2c1 | 794 nM |
| CCN1CCN(c2cc(C)c3cc(NC(=O)c4ccc(N(CC)CC)cc4)ccc3n2)CC1 | 962 nM |

| SMILES | XC50 |
| --- | --- |
| c1ccc(-c2nc(Nc3nc4ccccc4[nH]3)[nH]c2-c2ccccc2)cc1 | 619 nM |
| Cc1nc(NCCc2c[nH]cn2)cc(NCc2ccccc2)n1 | 833 nM |
| O=C(NCc1cccc(OC(F)(F)F)c1)c1cnc2c(c1)nc(-c1c[nH]c(-c3ccccc3)n1)n2CCc1c[nH]cn1 | 683 nM |
| Cc1ccc(Nc2nc(C)cc(NCc3ccc(-n4ccnc4)cc3)n2)cc1 | 1010 nM |
| CCN1CCN(c2cc(C)c3cc(NC(=O)c4ccc(OC)c([N+](=O)[O-])c4)ccc3n2)CC1 | 553 nM |
| COc1ccc(C)c(Nc2ccnc(Nc3cccc(-c4nc5ccccc5[nH]4)c3)n2)c1 | 716 nM |
| Cc1cccc2nc(-c3ccc(-c4cccc(CN5CCCC(N)C5)c4)s3)[nH]c12 (stereo not given) | 539 nM |
| O=C(Nc1ccc(OC2CCN(Cc3ccc(F)cc3)C2)cc1)c1cccs1 (stereo not given) | 642 nM |
| O=C(NC1CCC(N2CCC3(CC2)C(=O)NCN3c2ccccc2)CC1)c1cc2ccccc2[nH]1 (stereo not given) | 679 nM |
| CCN(c1cc(C)nc(Nc2ccc(Cl)cc2)n1)[C@H]1CCN(Cc2ccccc2)C1 | 855 nM |
| FC(F)(F)c1ccc2nccc(NCc3ccccc3)c2c1 | 1150 nM |
| COc1cc(NC(=O)c2cccs2)c(OC)cc1NC(=O)Nc1cccc(Cl)c1 | 1000 nM |
| COc1cc2nc(NCC3CCN(c4nc(N)c5cc(OC)c(OC)cc5n4)CC3)nc(N)c2cc1OC | 776 nM |
| CCN(CC)c1ccc(C(c2ccc(N(CC)CC)cc2)c2ccc([N+](=O)[O-])cc2)cc1 | 946 nM |
| COc1ccc2ncc(F)c(CCN3CC[C@H](NC(=O)c4ccc5c(n4)NC(=O)CS5)[C@H](O)C3)c2n1 | 947 nM |
| COc1ccc(CCNCCCCCNCCc2ccc(Cl)cc2)cc1OC | 741 nM |
| COc1ccc(C(=O)c2ccc3[nH]cc(C4=CCN(C)CC4)c3c2)cc1 | 1050 nM |
| CCCn1c(Sc2ccc(C#N)c([N+](=O)[O-])c2)nnc1-c1cc(OC)cc(OC)c1 | 718 nM |
| CC1(C)N=C(N)N=C(N)C1c1ccc(Cl)c(Cl)c1 (stereo not given) | 25.9 nM |
| COc1ccc(-c2cccc(NC(=O)c3ccc(Cl)cc3)c2)cc1CNC(C)C | 695 nM |
| Cc1cc(N(C)C)nc(Nc2ccc(NC(=O)COc3ccccc3)cc2)n1 | 1760 nM |
| Oc1ccc(CCNc2nc(NCCCOc3ccccc3-c3ccc(C(F)(F)F)cc3)nc(N3CCNCC3)n2)cc1 | 891 nM |
| CCOC(=O)c1ccc2[nH]c(-c3ccc(C(=O)NCc4ccc(C(C)(C)C)cc4)cc3)nc2c1 | 847 nM |
